Assay results published in US9296725B2, “Heterocyclyl pyrimidine analogues as TYK2 inhibitors” (Cellzome Limited, priority 2012, dated 2016).
Where two headings read alike, the source gives them in different places.

Key:
TYK2 = molecular target: T1, TYK2 (Homo sapiens, UniProt P29597); test: Kinobeads assay, TYK2 (competition binding in mixed Molt4/Ramos cell lysate, dot blot detection)
T1 construct: endogenous in cells; host or cells: Molt4 (ATCC CRL-1582) and Ramos (ATCC CRL-1596), mixed lysate 1:2
Description: (§1) The compounds of the present invention as described in the previous examples were tested in a Kinobeads™ assay as described for ZAP-70 (WO-A 2007/137867). Briefly, test compounds (at various concentrations) and the affinity matrix with the immobilized aminopyrido-pyrimidine ligand 24 were added to cell lysate aliquots and allowed to bind to the proteins in 10 the lysate sample. After the incubation time the beads with captured proteins were separated from the lysate. Bound proteins were then eluted and the presence of TYK2 and JAK2 was detected and quantified using specific antibodies in a dot blot procedure and the Odyssey infrared detection system. Dose response curves for individual kinases were generated and IC50 values calculated. Kinobeads™ assays have been previously described (WO-A 2007/137867; WO-A 2006/134056).
(§2) The affinity matrix was washed two times with 15 mL of 1×DP buffer containing 0.2% NP40 (IGEPAL® CA-630, Sigma, #13021) and then resuspended in 1×DP buffer containing 0.2% NP40 (3% beads slurry). 5×DP buffer: 250 mM Tris-HCl pH 7.4, 25% Glycerol, 7.5 mM MgCl2, 750 mM NaCl, 5 mM Na3VO4; filter the 5×DP buffer through a 0.22 μm filter and store in aliquots at −80° C. The 5×DP buffer is diluted with H2O to 1×DP buffer containing 1 mM DTT and 25 mM NaF.
(§3) Stock solutions of test compounds were prepared in DMSO. In a 96 well plate 30 μL solution of diluted test compounds at 5 mM in DMSO were prepared. Starting with this solution a 1:3 dilution series (9 steps) was prepared. For control experiments (no test compound) a buffer containing 2% DMSO was used.
(§4) Molt4 cells (ATCC catalogue number CRL-1582) and Ramos cells (ATCC catalogue number CRL-1596) were grown in 1 L Spinner flasks (Integra Biosciences, #182101) in suspension in RPMI 1640 medium (Invitrogen, #21875-034) supplemented with 10% Fetal Bovine Serum (Invitrogen) at a density between 0.15×10^6 and 1.2×10^6 cells/mL. Cells were harvested by centrifugation, washed once with 1×PBS buffer (Invitrogen, #14190-094) and cell pellets were frozen in liquid nitrogen and subsequently stored at −80° C. Cells were homogenized in a Potter S homogenizer in lysis buffer: 50 mM Tris-HCl, 0.8% NP40, 5% glycerol, 150 mM NaCl, 1.5 mM MgCl2, 25 mM NaF, 1 mM sodium vanadate, 1 mM DTT, pH 7.5. One complete EDTA-free tablet (protease inhibitor cocktail, Roche Diagnostics, 1873580) per 25 mL buffer was added. The material was dounced 10 times using a mechanized POTTER S, transferred to 50 mL falcon tubes, incubated for 30 minutes on ice and spun down for 10 minutes at 20,000 g at 4° C. (10,000 rpm in Sorvall SLA600, precooled). The supernatant was transferred to an ultracentrifuge (UZ)-polycarbonate tube (Beckmann, 355654) and spun for 1 hour at 100.000 g at 4° C. (33.500 rpm in Ti50.2, precooled). The supernatant was transferred again to a fresh 50 mL falcon tube, the protein concentration was determined by a Bradford assay (BioRad) and samples containing 50 mg of protein per aliquot were prepared. The samples were immediately used for experiments or frozen in liquid nitrogen and stored frozen at −80° C.
(§5) Cell lysate (approximately 50 mg protein per plate) was thawed in a water bath at room temperature and then stored on ice. To the thawed cell lysate 1×DP 0.8% NP40 buffer containing protease inhibitors (1 tablet for 25 mL buffer; EDTA-free protease inhibitor cocktail; Roche Diagnostics 1873580) was added in order to reach a final protein concentration of 10 mg/mL total protein. The diluted cell lysate was stored on ice. Mixed Molt4/Ramos lysate was prepared by combining one volume of Molt4 lysate and two volumes of Ramos lysate (ratio 1:2).
(§6) To a 96 well filter plate (Multiscreen HTS, BV Filter Plates, Millipore #MSBVN1250) were added per well: 100 μL affinity matrix (3% beads slurry), 3 μL of compound solution, and 50 μL of diluted lysate. Plates were sealed and incubated for 3 hours in a cold room on a plate shaker (Heidolph tiramax 1000) at 750 rpm. […]

JAK2 = molecular target: T2, JAK2 (Homo sapiens, UniProt O60674); test: Kinobeads assay, JAK2 (competition binding in mixed Molt4/Ramos cell lysate, dot blot detection); details: read-out: JAK2 Band (Kinobeads assay potency, IC50)
T2 construct: endogenous in cells; host or cells: Molt4 (ATCC CRL-1582) and Ramos (ATCC CRL-1596), mixed lysate 1:2
Description: as §1, §2, §3, §4, §5, §6

[1] = Kinobeads assay, Molt4/Ramos lysate, read-out: TYK2 Band (Kinobeads assay potency, IC50)

T1 sequence (P29597 whole entry): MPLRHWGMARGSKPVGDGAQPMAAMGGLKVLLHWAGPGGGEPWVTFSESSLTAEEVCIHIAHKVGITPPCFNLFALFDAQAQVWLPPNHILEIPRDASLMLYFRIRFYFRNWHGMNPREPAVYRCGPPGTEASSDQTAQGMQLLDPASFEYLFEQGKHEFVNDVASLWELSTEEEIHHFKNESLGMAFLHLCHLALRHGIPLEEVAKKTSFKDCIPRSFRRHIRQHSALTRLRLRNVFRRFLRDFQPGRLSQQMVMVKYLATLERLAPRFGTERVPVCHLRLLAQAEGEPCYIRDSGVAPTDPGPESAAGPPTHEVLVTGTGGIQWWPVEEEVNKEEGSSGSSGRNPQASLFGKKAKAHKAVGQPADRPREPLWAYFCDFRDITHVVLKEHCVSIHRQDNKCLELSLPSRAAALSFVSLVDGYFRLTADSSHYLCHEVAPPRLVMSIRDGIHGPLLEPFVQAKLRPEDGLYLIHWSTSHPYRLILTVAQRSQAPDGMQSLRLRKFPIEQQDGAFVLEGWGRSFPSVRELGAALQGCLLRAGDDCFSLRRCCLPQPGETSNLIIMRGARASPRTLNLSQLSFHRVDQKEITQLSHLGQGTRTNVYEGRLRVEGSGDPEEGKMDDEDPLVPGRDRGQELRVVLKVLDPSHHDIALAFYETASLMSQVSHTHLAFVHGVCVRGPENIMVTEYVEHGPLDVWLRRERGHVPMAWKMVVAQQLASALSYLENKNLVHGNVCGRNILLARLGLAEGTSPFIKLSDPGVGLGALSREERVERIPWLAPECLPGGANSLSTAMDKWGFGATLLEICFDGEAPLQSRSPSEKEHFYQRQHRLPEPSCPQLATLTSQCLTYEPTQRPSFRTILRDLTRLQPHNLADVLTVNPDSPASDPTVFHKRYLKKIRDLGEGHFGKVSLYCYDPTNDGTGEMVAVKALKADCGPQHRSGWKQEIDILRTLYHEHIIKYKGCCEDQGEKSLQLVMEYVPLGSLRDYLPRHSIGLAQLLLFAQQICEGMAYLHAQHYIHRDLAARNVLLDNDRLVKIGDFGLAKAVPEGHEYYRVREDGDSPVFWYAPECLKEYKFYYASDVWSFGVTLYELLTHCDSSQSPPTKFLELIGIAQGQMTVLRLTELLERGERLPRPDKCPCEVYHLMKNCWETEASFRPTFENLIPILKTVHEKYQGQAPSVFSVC
T2 sequence (O60674 whole entry): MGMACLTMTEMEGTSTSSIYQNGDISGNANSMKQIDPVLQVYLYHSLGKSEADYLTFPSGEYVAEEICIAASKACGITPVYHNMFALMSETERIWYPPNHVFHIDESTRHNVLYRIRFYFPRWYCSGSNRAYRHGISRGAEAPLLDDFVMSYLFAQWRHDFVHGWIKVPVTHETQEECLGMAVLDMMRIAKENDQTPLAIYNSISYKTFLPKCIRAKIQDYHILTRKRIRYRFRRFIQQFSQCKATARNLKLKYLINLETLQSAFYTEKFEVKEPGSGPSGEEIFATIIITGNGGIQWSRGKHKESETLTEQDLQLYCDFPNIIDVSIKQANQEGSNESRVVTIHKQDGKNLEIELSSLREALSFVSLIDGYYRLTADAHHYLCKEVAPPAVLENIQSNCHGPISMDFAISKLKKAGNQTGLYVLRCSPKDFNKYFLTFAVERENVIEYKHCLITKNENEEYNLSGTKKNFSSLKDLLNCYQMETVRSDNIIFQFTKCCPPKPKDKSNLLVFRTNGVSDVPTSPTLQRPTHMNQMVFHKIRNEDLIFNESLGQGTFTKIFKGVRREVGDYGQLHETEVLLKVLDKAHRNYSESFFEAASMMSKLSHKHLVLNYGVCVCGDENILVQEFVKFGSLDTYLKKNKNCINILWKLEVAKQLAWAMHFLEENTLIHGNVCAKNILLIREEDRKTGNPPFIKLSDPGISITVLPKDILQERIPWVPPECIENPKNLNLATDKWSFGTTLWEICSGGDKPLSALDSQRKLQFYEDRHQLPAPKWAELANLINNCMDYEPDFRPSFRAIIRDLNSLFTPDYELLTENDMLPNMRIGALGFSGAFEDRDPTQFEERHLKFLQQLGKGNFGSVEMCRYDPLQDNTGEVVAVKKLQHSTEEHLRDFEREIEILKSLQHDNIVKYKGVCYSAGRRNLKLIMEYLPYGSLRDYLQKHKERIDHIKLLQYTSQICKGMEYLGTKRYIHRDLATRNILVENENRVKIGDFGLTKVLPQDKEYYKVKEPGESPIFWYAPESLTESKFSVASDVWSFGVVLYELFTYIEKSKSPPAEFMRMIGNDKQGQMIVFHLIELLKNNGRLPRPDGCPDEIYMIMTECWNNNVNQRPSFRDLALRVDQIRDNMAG

| Structure (SMILES) | IC50 (TYK2; [1]) | IC50 (JAK2) | IC50 (TYK2; read-out: TYK2 IC50) |
| --- | --- | --- | --- |
| O=C(O)Cn1cc(Nc2ncc(Cl)c(NCc3cc(F)cc(F)c3)n2)cn1 [Example I-168] | 0.1 to 1 µM | 0.1 to 1 µM |  |
| CN(C)C(=O)Cn1cc(Nc2ncc(Cl)c(NCc3cccc(CNS(C)(=O)=O)c3)n2)cn1 [Example I-416] | 0.1 to 1 µM | 0.1 to 1 µM |  |
| OCCn1cc(Nc2ncc(F)c(NCc3c(F)cc(F)cc3F)n2)cn1 [Example I-17] | 0.01 to 0.1 µM | 1 to 10 µM |  |
| O=C(Cn1cc(Nc2ncc(Cl)c(NCc3cncc(F)c3)n2)cn1)N1CCOCC1 [Example I-339] | 0.01 to 0.1 µM | 0.1 to 1 µM |  |
| CC(C)N(C)C(=O)Cn1cc(Nc2ncc(F)c(NCc3c(F)cc(F)cc3F)n2)cn1 [Example I-59] | ≤ 0.01 µM | 1 to 10 µM |  |
| COc1ccccc1CNc1nc(Nc2cnn(CCO)c2)ncc1Cl [Example I-185] | 0.1 to 1 µM | 1 to 10 µM |  |
| OCCn1cc(Nc2ncc(Cl)c(NCc3ccccn3)n2)cn1 [Example I-247] | 1 to 10 µM | 0.1 to 1 µM |  |
| OCCn1cc(Nc2ncc(Cl)c(NCc3ccccc3C(F)(F)F)n2)cn1 [Example I-191] | 0.1 to 1 µM | 1 to 10 µM |  |
| CC(O)Cn1cc(Nc2ncc(Cl)c(NCc3cccc(F)c3F)n2)cn1 (centres unmarked) [Example I-215] | 0.1 to 1 µM | 0.1 to 1 µM |  |
| Cc1cnc(Nc2cnn(CC(=O)NC3CC3)c2)nc1NCc1cc(F)ccc1F [Example I-346] | 0.01 to 0.1 µM | 0.1 to 1 µM |  |
| Cn1cc(Nc2ncc(Cl)c(NCc3cc(F)cc(F)c3)n2)cn1 [Example I-176] | 0.01 to 0.1 µM | 0.01 to 0.1 µM |  |
| CN(C)C(=O)Cn1cc(Nc2ncc(F)c(NCc3c(F)cccc3F)n2)cn1 [Example I-382] | 0.01 to 0.1 µM | 1 to 10 µM |  |
| O=C(Cn1cc(Nc2ncc(Cl)c(NCc3c(F)cccc3F)n2)cn1)N1CCOCC1 [Example I-161] | ≤ 0.01 µM | 0.1 to 1 µM |  |
| C[C@H](CO)NC(=O)Cn1cc(Nc2nccc(NCc3c(Cl)ccc(Cl)c3F)n2)cn1 [Example I-131] | 0.01 to 0.1 µM | 0.1 to 1 µM |  |
| C[C@@H](CO)NC(=O)Cn1cc(Nc2nccc(NCc3c(Cl)ccc(Cl)c3F)n2)cn1 [Example I-121] | ≤ 0.01 µM | 0.1 to 1 µM |  |
| Cc1cnc(Nc2cnn(C)c2)nc1NCc1c(F)cc(S(N)(=O)=O)cc1F [Example I-43] | 0.01 to 0.1 µM | 0.1 to 1 µM |  |
| CC(CO)n1cc(Nc2ncc(Cl)c(NCc3ccccc3)n2)cn1 (centres unmarked) [Example I-361] | 0.1 to 1 µM | 0.1 to 1 µM |  |
| COc1ccc(Cl)c(CNc2nc(Nc3cnn(CC(=O)NC(C)C)c3)ncc2F)c1F [Example I-84] | ≤ 0.01 µM | 0.1 to 1 µM |  |
| CNC(=O)Cn1cc(Nc2ncc(Cl)c(NCc3ccccc3S(=O)(=O)NC)n2)cn1 [Example I-355] | 0.1 to 1 µM | 0.1 to 1 µM |  |
| CC1(C)COCCN1C(=O)Cn1cc(Nc2nccc(NCc3c(F)cc(F)cc3F)n2)cn1 [Example I-459] | 0.01 to 0.1 µM | > 10 µM |  |
| NC(=O)Cn1cc(Nc2ncc(F)c(NCc3c(F)cccc3F)n2)cn1 [Example I-380] | 0.01 to 0.1 µM | 1 to 10 µM |  |

| Structure (SMILES) | IC50 (TYK2; [1]) | IC50 (JAK2) | IC50 (TYK2; read-out: TYK2 IC50) |
| --- | --- | --- | --- |
| Clc1cnc(Nc2cn[nH]c2)nc1NCc1ccccc1 [Example I-201] | 0.1 to 1 µM | 1 to 10 µM |  |
| O=C(Cn1cc(Nc2nccc(NCc3c(F)cc(F)cc3F)n2)cn1)N[C@H]1C[C@H]1F [Example I-454] | 0.01 to 0.1 µM | 1 to 10 µM |  |
| CC(C)(CO)NC(=O)Cn1cc(Nc2nccc(NCc3c(F)cc(F)cc3F)n2)cn1 [Example I-460] | 0.01 to 0.1 µM | 1 to 10 µM |  |
| CC(C)NC(=O)Cn1cc(Nc2nccc(NCc3c(F)cc(F)cc3Cl)n2)cn1 [Example I-94] | 0.01 to 0.1 µM | 1 to 10 µM |  |
| CNC(=O)Cn1cc(Nc2ncc(Cl)c(NCc3c(Cl)cccc3Cl)n2)cn1 [Example I-325] | 0.01 to 0.1 µM | 1 to 10 µM |  |
| Cn1cc(Nc2ncc(Cl)c(NCc3cccc(CS(C)(=O)=O)c3)n2)cn1 [Example I-442] | 1 to 10 µM | 1 to 10 µM |  |
| [2H]C([2H])(O)C([2H])([2H])n1cc(Nc2ncc(Cl)c(NCc3cccc(F)c3)n2)cn1 [Example I-232] | 0.1 to 1 µM | 1 to 10 µM |  |
| Cc1ccc(F)c(CNc2nc(Nc3cnn(CC(N)=O)c3)ncc2Cl)c1F [Example I-282] | 0.01 to 0.1 µM | 1 to 10 µM |  |
| CCOc1ccc(F)c(CNc2nc(Nc3cnn(CC(=O)N(C)C)c3)ncc2Cl)c1F [Example I-268] | 0.01 to 0.1 µM | 1 to 10 µM |  |
| CNC(=O)Cn1cc(Nc2ncc(Cl)c(NCc3cccc(C#N)c3)n2)cn1 [Example I-230] | 0.01 to 0.1 µM | 1 to 10 µM |  |
| O=C(Cn1cc(Nc2nccc(NCc3c(F)cc(F)cc3F)n2)cn1)NCCF [Example I-90] | 0.01 to 0.1 µM | 1 to 10 µM |  |
| CS(=O)(=O)c1ccccc1CNc1nc(Nc2cnn(CC(N)=O)c2)ncc1Cl [Example I-450] | 0.1 to 1 µM | 0.1 to 1 µM |  |
| Cn1ccnc1Cn1cc(Nc2ncc(Cl)c(NCc3ccccc3)n2)cn1 [Example I-248] | 0.1 to 1 µM | 1 to 10 µM |  |
| OCCn1cc(Nc2ncc(Cl)c(NCc3c(Cl)cccc3Cl)n2)cn1 [Example I-323] | 0.01 to 0.1 µM | 0.1 to 1 µM |  |
| COc1ccc(F)c(CNc2ccnc(Nc3cnn(CC(=O)NC4CC4)c3)n2)c1F [Example I-125] | ≤ 0.01 µM | 1 to 10 µM | < 0.1 µM |
| Cc1cnc(Nc2cnn(CC(=O)N(C)C)c2)nc1NCc1cc(F)cc(C(F)(F)F)c1 [Example I-330] | 0.1 to 1 µM | 1 to 10 µM |  |
| Cn1cc(Nc2ncc(F)c(NCc3c(F)c(F)cc(F)c3F)n2)cn1 [Example I-462] | 0.1 to 1 µM | 1 to 10 µM |  |
| NC(=O)Cn1cc(Nc2ncc(Cl)c(NCc3cccnc3O)n2)cn1 [Example I-405] | 1 to 10 µM | 1 to 10 µM |  |
| CNC(=O)Cn1cc(Nc2ncc(C)c(NCc3cc(F)cc(F)c3)n2)cn1 [Example I-354] | 0.1 to 1 µM | 0.1 to 1 µM |  |
| Fc1cccc(CNc2nc(Nc3cn[nH]c3)ncc2Cl)c1 [Example I-370] | 0.1 to 1 µM | 0.1 to 1 µM |  |
